From patent US20040176431A1, “Antiproliferative 2-(sulfo-phenyl)-aminothiazole derivatives and pharmaceutical compositions, and methods for their use” (Pfizer, Inc., priority 2003, published 2004)

Assays:
[1] = biological target: T1, CDK2/cyclin A (Homo sapiens, UniProt P24941); assay: Inhibition of CDK2/Cyclin A retinoblastoma kinase activity; format: biochemical; settings: apparent Ki, Rb fragment substrate
T1 construct: made in house; host or cells: CDK2: insect cells (baculovirus); cyclin A: E. coli, then limited proteolysis
How it was run: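 Radiometric [32/33P]ATP transfer to an Rb fragment by CDK2 (insect cell, 10 or 19 nM) complexed with proteolyzed cyclin A; pH 7.4 HEPES, 25 μM ATP, 2% DMSO, 30 °C, 60 or 75 min, filter capture. Apparent Ki from competitive or tight-binding inhibition fits.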

[2] = biological target: T2, CDK4/cyclin D3 (Homo sapiens, UniProt P11802); assay: Inhibition of CDK4/Cyclin D retinoblastoma kinase activity; format: biochemical; settings: apparent Ki, Rb fragment substrate
T2 construct: made in house; host or cells: insect cells (baculovirus co-infection)
How it was run: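 Apparent Ki derived by fitting activity at varied inhibitor concentrations to competitive (or competitive tight-binding) inhibition equations, background without enzyme subtracted. Radiometric filter-binding read-out of Rb(386-928) phosphorylation by 5 nM CDK4/cyclin D3(1-264); 25 μM ATP, pH 7.4, 2% DMSO, 30° C., 20 min, extended to 60 min for tight binders.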

[3] = tested on: HCT-116 cells; assay: Inhibition of cell growth (MTT tetrazolium salt assay); format: cell-based; settings: Homo sapiens; for IC50: read-out: HCT116 IC50; for IC90: read-out: HCT116 IC90
How it was run: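 HCT-116 cells in McCoy's 5A were pre-incubated 4 h, then exposed to compounds in 0.5% DMSO for 4–6 days at 37 °C. MTT at 0.2 mg/mL final was added for 4 h and DMSO-solubilized formazan read at 540 nm. Values are relative to 0.5% DMSO-only controls.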

[4] = biological target: T3, CDK1 (cdc2)/cyclin B (Homo sapiens, UniProt P06493); assay: Inhibition of CDK1(cdc2)/Cyclin B histone H1 kinase activity; format: biochemical; settings: apparent Ki, histone H1 substrate
T3 construct: purchased New England Biolabs (Beverly Mass.)
Method: Cyclin-dependent kinase activity was measured by quantifying the enzyme-catalyzed, time-dependent incorporation of radioactive phosphate from [^32P]ATP or [^33P]ATP into a protein substrate. Unless noted otherwise, assays were performed in 96-well plates in a total volume of 50 μL, in the presence of 10 mM HEPES (N-[2-hydroxyethyl]piperazine-N′-[2-ethanesulfonic acid]) (pH 7.4), 10 mM MgCl2, 25 μM adenosine triphosphate (ATP), 1 mg/mL ovalbumin, 5 μg/mL leupeptin, 1 mM dithiothreitol, 10 mM β-glycerophosphate, 0.1 mM sodium vanadate, 1 mM sodium fluoride, 2.5 mM ethylene glycol-bis(β-aminoethyl ether)-N,N,N′N′-tetraacetic acid (EGTA), 2% (v/v) dimethylsulfoxide, and 0.03-0.4 μCi [^32/33P]ATP per reaction. Reactions were initiated with enzyme, incubated at 30° C., and terminated after 20 minutes by the addition of ethylenediaminetetraacetic acid (EDTA) to 250 mM. The phosphorylated substrate was then captured on a nitrocellulose or phosphocellulose membrane using a 96-well filtration manifold, and unincorporated radioactivity was removed by repeated washing with 0.85% phosphoric acid. Radioactivity was quantified by exposing the dried membranes to a phosphorimager.
Inhibition was measured relative to control wells that contained all reaction components including 2% (v/v) DMSO but no compound, after subtraction of background radioactivity measured in the absence of enzyme. Apparent Ki values of discrete compounds were measured by assaying enzyme activity in the presence of different inhibitor compound concentrations and subtracting the background radioactivity measured in the absence of enzyme. The kinetic parameters (kcat, Km for ATP) were measured for each enzyme under the usual assay conditions by determining the dependence of initial rates on ATP concentration. […]
The complex of human CDK1 (cdc2) and cyclin B was purchased from New England Biolabs (Beverly Mass.). […] Phosphorylated histone substrate was captured by microfiltration on a phosphocellulose P81 membrane and quantified using a phosphorimager as described above.

T3 sequence (P06493 whole entry): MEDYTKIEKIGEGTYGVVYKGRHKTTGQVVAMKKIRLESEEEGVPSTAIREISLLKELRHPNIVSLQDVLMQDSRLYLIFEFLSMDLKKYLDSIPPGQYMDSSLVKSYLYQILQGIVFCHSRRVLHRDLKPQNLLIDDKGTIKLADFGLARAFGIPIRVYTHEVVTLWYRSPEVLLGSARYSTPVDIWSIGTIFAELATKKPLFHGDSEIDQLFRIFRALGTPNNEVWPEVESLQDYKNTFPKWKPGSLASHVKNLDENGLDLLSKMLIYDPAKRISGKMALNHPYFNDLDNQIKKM
T3 sequence (P14635 whole entry partner): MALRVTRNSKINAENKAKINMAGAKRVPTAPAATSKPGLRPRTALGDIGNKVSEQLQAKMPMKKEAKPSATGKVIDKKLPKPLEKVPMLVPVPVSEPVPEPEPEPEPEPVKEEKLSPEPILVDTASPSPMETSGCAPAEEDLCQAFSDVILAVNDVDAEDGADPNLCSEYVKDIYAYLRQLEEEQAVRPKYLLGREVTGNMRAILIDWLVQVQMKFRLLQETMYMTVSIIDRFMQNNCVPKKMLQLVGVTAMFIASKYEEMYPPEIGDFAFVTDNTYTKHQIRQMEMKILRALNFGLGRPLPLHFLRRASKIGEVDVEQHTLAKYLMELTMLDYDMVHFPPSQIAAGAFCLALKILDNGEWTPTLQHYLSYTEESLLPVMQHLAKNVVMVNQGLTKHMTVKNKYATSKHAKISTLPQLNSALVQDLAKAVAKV
T2 sequence (P11802 whole entry, the tested form may be a part): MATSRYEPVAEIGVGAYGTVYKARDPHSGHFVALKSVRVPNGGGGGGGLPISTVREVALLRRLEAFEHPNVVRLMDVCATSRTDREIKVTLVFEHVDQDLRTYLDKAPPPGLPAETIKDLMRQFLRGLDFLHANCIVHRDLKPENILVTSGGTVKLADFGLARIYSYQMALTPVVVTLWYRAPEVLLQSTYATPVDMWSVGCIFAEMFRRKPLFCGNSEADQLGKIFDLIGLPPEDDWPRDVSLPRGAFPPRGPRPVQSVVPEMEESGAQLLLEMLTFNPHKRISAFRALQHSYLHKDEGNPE
T2 sequence (P30281 1-264 partner limits assumed): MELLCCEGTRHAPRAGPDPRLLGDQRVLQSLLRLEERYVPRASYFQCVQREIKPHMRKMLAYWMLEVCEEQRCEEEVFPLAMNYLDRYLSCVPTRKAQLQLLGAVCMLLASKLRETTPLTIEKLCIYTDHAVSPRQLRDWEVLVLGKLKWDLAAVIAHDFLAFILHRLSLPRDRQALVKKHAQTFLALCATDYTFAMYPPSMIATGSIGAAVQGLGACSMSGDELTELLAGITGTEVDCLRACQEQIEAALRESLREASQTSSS

## CS(=O)(=O)c1ccc(Nc2nc(N)c(C(=O)c3c(Cl)cccc3Cl)s2)cc1 [AA(2), 4-Amino-5-(2,6-dichlorobenzoyl)-2-(4-methanesulfonyl-phenylamino)-thiazole]
[1]
  Ki: 138 nM
[2]
  Ki: 42 nM
[3]
  IC50: 4500 nM
  IC90: 18000 nM
[4]
  Ki: 93 nM

## Cc1ccc(CNS(=O)(=O)c2ccc(Nc3nc(N)c(C(=O)c4c(F)cccc4F)s3)cc2)o1 [Example A(11), 4-[4-Amino-5-(2,6-difluoro-benzoyl)-thiazol-2-ylamino]-N-(5-methyl-furan-2-ylmethyl)-benzenesulfonamide]
[1]
  Ki: < 5 nM
[2]
  Ki: 28 nM
[3]
  IC50: 43 nM
  IC90: 140 nM
[4]
  Ki: 3.9 nM
